# Data as given in patent US11401271B2, “Fused heterocyclic compound, pyrazole-ring-containing fused heterocyclic compound, agricultural composition containing thereof, and method of using the composition” (SOUTH CHINA AGRICULTURAL UNIVERSITY, priority 2017, dated 2022).
# Like-named read-outs stand apart in the source and are kept apart here.
# Assays:
# Format in all cases: in vivo
# Plutella xylostella = test: whole plant or invertebrate; conditions: for mortality at 500 ppm: Plutella xylostella, read-out: Plutella xylostella Mortality (%) 500 ppm
# How it was run: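 Leaf immersion feeding test: 2nd-instar larvae (about 35 per vessel, 3 replicates) kept at 28° C. on 1.0 cm cabbage discs soaked 5 s in a 500 ppm solution with 0.05% Tween-80. Mortality after 24 h of exposure, calculated relative to live larvae in the Tween-80 control.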
# Spodoptera exigua = test: whole plant or invertebrate; conditions: for mortality at 500 ppm: Spodoptera exigua, 24 h, read-out: Spodoptera exigua Mortality (%) 500 ppm
# How it was run: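 Leaf immersion feeding: second-instar larvae (about 35 per vessel, triplicate) kept at 28° C on discs treated with 500 ppm test solution in 0.05% Tween-80. Mortality at 24 h, calculated relative to surviving larvae in the solvent control.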
# Aphis craccivora = test: whole plant or invertebrate; conditions: for mortality at 500 ppm: Aphis craccivora, 24 h, read-out: Aphis craccivora Mortality (%) 500 ppm; for Aphis craccivora Mortality (%): immersion 5 seconds, counted after 24 hours
# How it was run: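 Mortality scored 24 h after treatment as the reduction in live aphids versus a 0.05% Tween-80 control; three replicates, 23° C. Treatment was a 5 s immersion of wingless adults on bean sprouts in 500 ppm test solution containing 0.05% Tween-80, followed by air-drying.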
# Solenopsis invicta = test: whole plant or invertebrate; conditions: water test tube poison-feeding; for mortality at 100 ppm: Solenopsis invicta
# How it was run: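 Mortality (%) of Solenopsis invicta, computed against live counts in control tubes, was recorded 24 h and 72 h after treatment at 25 °C. Compound was offered by oral feeding in test tubes at 100 ppm, diluted from a 10 g/L DMSO stock into water with 5% honey and 0.05% Tween-80.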
# Bombyx mori L. = test: Toxicity test on 2nd-instar larvae of Bombyx mori L., leaf immersion feeding method; conditions: 1000 ppm, 24 hours
# Procedure: (1) Toxicity Test on 2nd-Instar Larvae of Bombyx mori L.
# Bombyx mori L. is an important economic insect sensitive to pesticides in an agricultural ecosystem, and is also one of the non-target organisms of environmental ecology listed in pesticide registration of China. The 2nd-instar larvae of Bombyx mori L. were used as test objects and tested by using a leaf immersion feeding method.
# Operation process: Samples were weighed accurately, and respectively added with 200 μL of dimethyl sulfoxide to prepare 10 g/L mother liquor which was diluted into a concentration of 1000 ppm with an aqueous solution containing 0.05% of Tween-80 during the test. Young cotyledons of mulberries were collected, washed and air-dried, immersed in a liquid medicine, taken out after 5 seconds, naturally air-dryed, and then transferred into a clean vessel. About 35 2nd -instar larvae of Bombyx mori L. were put into the vessel and fed at a constant temperature of 25° C. Each concentration was repeated 3 times, and an aqueous solution containing 0.05% of Tween-80 was used as a control group. After being treated for 24 hours, a number of dead Bombyx mori L. was counted, and a mortality (%) was calculated according to a formula that mortality (%)=(number of live larvae in the control group −number of treated live larvae)/number of live larvae in the control group * 100%.
# Apis cernan = test: Toxicity test on adult worker bees of Apis cernan, small beaker method; conditions: 500 ppm, 48 hours
# Procedure: (2) Toxicity Test on Adult Worker Bees of Apis cernan.
# Adult worker bees of Apis cernan having the same size were selected for test. The worker bees were collected from beekeeping boxes in the daystart of the test day and tested by using a small beaker method.
# Operation process: A small amount of absorbent cotton was put into a 5 mL small beaker, 5 mL of a test liquid medicine (a concentration of 500 ppm) was dropped into the absorbent cotton, and stirred gently to make the absorbent cotton completely wet but not leached obviously, then the small beaker was put into a 500 mL large beaker, then 15 worker bees were put into the large beaker, and finally the large beaker was sealed with gauze. After treatment, the large beaker was placed in a dark room of an artificial climate box. After taking the medicine for 48 hours, a number of live and dead worker bees were investigated.
# [1] = 24 h, read-out: Solenopsis invicta Mortality (%) 100 ppm 24 h, 100 ppm, 24 h
# [2] = 72 h, read-out: Solenopsis invicta Mortality (%) 100 ppm 72 h, 100 ppm, 72 h
# [3] = 500 ppm, 2nd-instar larvae, leaf immersion feeding
Structure (SMILES),mortality at 500 ppm (Plutella xylostella),mortality at 500 ppm (Spodoptera exigua),mortality at 500 ppm (Aphis craccivora),mortality at 100 ppm (Solenopsis invicta; [1]),mortality at 100 ppm (Solenopsis invicta; [2]),Toxicity determination Bombyx mori L. Mortality (%) (Bombyx mori L.),Toxicity determination Apis cernan Mortality (%) (Apis cernan),Plutella xylostella Mortality (%) 500 ppm (Plutella xylostella; [3]),"Spodoptera exigua Mortality (%) 500 ppm (Spodoptera exigua; 500 ppm, 2nd-instar larvae, leaf immersion feeding, 24 hours)","Aphis craccivora Mortality (%) 500 ppm (Aphis craccivora; 500 ppm, wingless adults, impregnation method, 24 hours)","Solenopsis invicta Mortality (%) 100 ppm 24 h (Solenopsis invicta; 100 ppm, 24 h)","Solenopsis invicta Mortality (%) 100 ppm 72 h (Solenopsis invicta; 100 ppm, 72 h)",Plutella xylostella Mortality (%) (Plutella xylostella; [3]),Spodoptera exigua Mortality (%) (Spodoptera exigua; [3]),"Aphis craccivora Mortality (%) (Aphis craccivora; 500 ppm, wingless adults)","Solenopsis invicta Mortality (%) 24 h (Solenopsis invicta; 100 ppm, 24 h)","Solenopsis invicta Mortality (%) 72 h (Solenopsis invicta; 100 ppm, 72 h)"
CC1(C)Nc2c([N+](=O)[O-])c(C#N)nn2-c2ccccc21 [Compound A21],100%,100%,100%,24%,100%,0%,6%,,,,,,,,,,
N#Cc1cnn2c1NC(F)(CN)c1ccc(Cl)cc1-2 (stereo not shown) [Compound A22],96%,100%,100%,30%,97%,0%,3%,,,,,,,,,,
N#Cc1cnn2c1NC(N)(CN)c1ccc(Cl)cc1-2 (stereo not shown) [Compound A23],100%,100%,100%,34%,100%,0%,5%,,,,,,,,,,
C[S+]([O-])c1nn2c(c1C#N)NC(F)(C(F)(F)F)c1ccccc1-2 (stereo not shown) [Compound A26],,,,,,7%,10%,100%,100%,100%,45%,100%,,,,,
CCOC(=O)c1c(SC)nn2c1NC(F)(C(F)(F)F)c1ccccc1-2 (stereo not shown) [Compound A27],100%,100%,100%,30%,100%,10%,15%,,,,,,,,,,
CSc1nn2c(c1C(=O)N1CCN(C)CC1)NC(F)(C(F)(F)F)c1ccccc1-2 (stereo not shown) [Compound A30],100%,100%,100%,40%,100%,8%,8%,,,,,,,,,,
CNC(=O)N1c2c(C#N)c(SC)nn2-c2ccccc2C1(F)C(F)(F)F (stereo not shown) [Compound A32],100%,90%,100%,26%,93%,10%,4%,,,,,,,,,,
Nc1cc2n(n1)-c1cnccc1C(F)(CC(F)(F)F)N2 (stereo not shown) [Compound A36],100%,100%,100%,44%,100%,3%,0%,,,,,,,,,,
O=[N+]([O-])c1cc2n(n1)-c1cnccc1C(F)(CC(F)(F)F)N2 (stereo not shown) [Compound A43],100%,100%,100%,20%,100%,3%,8%,,,,,,,,,,
COC(=O)CC1(C(=O)OC)Nc2c([S+]([O-])C(F)(F)F)c(C#N)nn2-c2c1ccc(Cl)c2C(F)(F)F (stereo not shown) [e-13],,,,,,,,,,,,,100%,100%,100%,20%,100%
COC(=O)CC1(C(=O)OC)Nc2c([S+]([O-])C(F)(F)F)c(C#N)nn2-c2cc(C(F)(F)F)c(Cl)cc21 (stereo not shown) [e-19],,,,,,,,,,,,,100%,100%,100%,31%,90%
